The values below come from article PMC10113987, “A tool for nuclear imaging of the SARS-CoV-2 entry receptor: molecular model and preclinical development of ACE2-selective radiopeptides” (EJNMMI Research, 2023).

The structures appear in SMILES notation. Positions of bridges follow the written chain, without caps; N, C: chain ends. Residues, ends and D or L forms follow the SMILES beside them. *: point of attachment. DOTA = O=C(O)CN1CCN(CC(=O)O)CCN(CC(=O)*)CCN(CC(=O)O)CC1; NODAGA = O=C(O)CN1CCN(CC(=O)O)CCN(C(CCC(=O)*)C(=O)O)CC1; Ahx = NCCCCCC(=O)O

Data set [1] is described as follows: Stability of the radiopeptide formulated in saline (HPLC). The format is physicochemical. The conditions noted are these: for Intact radiopeptide: 0.9% NaCl, room temperature, 20 MBq/nmol, 10 MBq/100 µL. As for the experimental part:
The purified [^67Ga]GaCl3 in HCl (~ 0.1 M) was added to a sodium acetate solution (0.5 M, pH 8) to obtain a buffered system of pH ~ 4. After adding the respective peptide (DOTA-DX600, NODAGA-DX600, HBED-CC-DX600 or DOTA-BPP9a) in a quantity to obtain the desired molar activity (5–20 MBq/nmol), the reaction mixture was incubated at 95 °C for 15 min. Quality control was performed using a Merck Hitachi LaChrom HPLC system (Additional file 1). The radiopeptides were used directly for in vitro and in vivo studies without further purification steps. The stability of the radiopeptides (20 MBq/nmol) formulated in 0.9% NaCl (10 MBq/100 µL) was assessed at room temperature (Additional file 1). The highest molar activity used in these studies was 20 MBq/nmol which means that one of 73–74 molecules was labeled with gallium-67. Nevertheless, the labeling efficiency of the DX600-based peptides was assessed using the highest possible molar activity that would still allow for the preparation of the DX600-based radiopeptide at a radiochemical purity of > 95% (Additional file 1).
Methods: The integrity of the radiopeptides (20 MBq/nmol), formulated in 0.9% NaCl (10 MBq/100 µL) and incubated at room temperature, was determined by HPLC using the system described above. The HPLC chromatograms were analyzed by determination of the peak area of the radiolabeled peptide, the released gallium-67, as well as degradation products of unknown structure. The quantity of the intact product was expressed as percentage of the sum of integrated peak areas of the entire chromatogram and set in relation to the original value determined at t = 0, which was set as 100%.

The target in another data set is T1, ACE (Homo sapiens, UniProt P12821).
T1 construct: host or cells: HEK-293
Briefly: ACE-binding affinity (saturation binding on HEK-ACE cells). The settings on record: on ice, 1 h. How it is done: In order to determine the KD values of the DX600-based radiopeptides and [^67Ga]Ga-DOTA-BPP9a, HEK-ACE2 and HEK-ACE cells were seeded in 48-well-plates allowing adhesion and growth overnight. The cell samples were incubated with increasing concentrations (1‒2000 nM) of the radiopeptides (5 MBq/nmol) on ice. Some of the cell samples were co-incubated with an excess of cyclo-DX600 or lisinopril (20 µM, 10 nmol) to block ACE2 or ACE, respectively, enabling the determination of non-specific binding (Additional file 1). After 1 h incubation, the cells were rinsed with PBS and lysed with NaOH (1 M, 600 µL) to count the activity in a γ-counter. The KD values were determined by plotting specific binding (total binding minus unspecific binding) against the molar concentration of the added radiopeptide. A nonlinear regression analysis was performed using GraphPad Prism software (version 8.3.1).

The nature of data set [2]: In vitro stability in mouse blood plasma (TLC). It is filed as in vitro ADME. The conditions noted are these: 37 °C. As for the experimental part:
The ^67Ga-labeled DX600-radiopeptides (20 MBq/nmol) were incubated in human and mouse plasma (10 MBq/200 µL), respectively, at 37 °C. Aliquots were taken at variable time points up to 24 h for analysis using reversed phase thin layer chromatography (TLC) with citrate buffer (0.1 M, pH 5.5) as a mobile phase. Images of the TLC plates were obtained using a storage phosphor system (Cyclone Plus, PerkinElmer) and quantified using the OptiQuant software (version 5.0, Bright Instrument Co Ltd., PerkinElmer™) (Supplementary Information).
The radiopeptides were prepared and TLC experiments were performed immediately after radiolabeling by applying the diluted radiopeptides in saline (1 µL; ~0.05 MBq) and [^67Ga]GaCl3 solution (1 µL; ~0.05 MBq) on the TLC plates. The radiopeptides were incubated in mouse or human plasma (10 MBq/200 µL) at 37° C. TLC was performed with an aliquot of the plasma samples at the given timepoints (30 min, 1 h, 3 h and 24 h). The TLC plates were exposed to a phosphor screen followed by development using a storage phosphor system (Cyclone Plus, PerkinElmer). The quantification of the signals was carried out using the OptiQuant software (version 5.0, Bright Instrument Co Ltd., PerkinElmer^TM). The obtained chromatograms were analyzed by determination of the peak area of the radiolabeled peptide, the released gallium-67 as well as degradation products of unknown structure. The quantity of the intact product was expressed as percentage of the sum of integrated peak areas of the entire chromatogram.

The subject of another data set is FVB mice. The data set is described as follows: In vivo stability in immunocompetent FVB mice (TLC of blood plasma, urine, kidneys). Also noted: species or system mouse. The conditions noted are these: 1 h p.i.; for Radiometabolites in kidney homogenates: fraction of accumulated activity. How it is done: In order to investigate the stability of the radiopeptides, the ^67Ga-labeled DX600 peptides (20 MBq/nmol) were tested in immunocompetent FVB mice (10 MBq in 100 μL per mouse). Before sacrificing, blood was collected from each mouse 1 h after injection of the radiopeptides. After centrifugation, the blood plasma was analyzed using reversed phase TLC with citrate buffer (0.1 M, pH 5.5) as a mobile phase. The kidneys were collected and processed to investigate the presence of intact radiopeptides and potential metabolites using the same TLC system. The analysis of the chromatograms was performed as described for the in vitro plasma stability (Additional file 1).
Methods: Immunocompetent FVB mice were injected with the DX600-based radiopeptides (n=2). One hour later, urine was collected and blood was sampled from the retrobulbar vein followed by centrifugation (10 min, 200 rcf). A drop of urine and blood plasma was analyzed using the TLC method described for in vitro stability experiments above (reversed phase as stationary phase and citrate buffer pH 5.5 as mobile phase). The data were also confirmed using normal phase TLC. Kidneys of mice were collected, cut into small pieces, homogenized in 200 μL buffer solution (ice-cold methanol containing 0.025% NH4OH) and centrifuged (5 min, 2300 rcf, 4° C) as described by Boss et al.. An aliquot of the supernatant of each sample was developed using the same TLC method as for urine and blood plasma samples. The TLC plates were exposed to a phosphor screen which was afterwards read using a storage phosphor system (Cyclone Plus, PerkinElmer). The quantification of the signals was carried out using the OptiQuant software (version 5.0, Bright Instrument Co Ltd., PerkinElmer^TM). The obtained chromatograms were analyzed by determination of the peak area of the radiolabeled peptide, the released gallium-67 as well as degradation products of unknown structure. The quantity of the intact product was expressed as percentage of the sum of integrated peak areas of the entire chromatogram.

T1 sequence (P12821 30-1306): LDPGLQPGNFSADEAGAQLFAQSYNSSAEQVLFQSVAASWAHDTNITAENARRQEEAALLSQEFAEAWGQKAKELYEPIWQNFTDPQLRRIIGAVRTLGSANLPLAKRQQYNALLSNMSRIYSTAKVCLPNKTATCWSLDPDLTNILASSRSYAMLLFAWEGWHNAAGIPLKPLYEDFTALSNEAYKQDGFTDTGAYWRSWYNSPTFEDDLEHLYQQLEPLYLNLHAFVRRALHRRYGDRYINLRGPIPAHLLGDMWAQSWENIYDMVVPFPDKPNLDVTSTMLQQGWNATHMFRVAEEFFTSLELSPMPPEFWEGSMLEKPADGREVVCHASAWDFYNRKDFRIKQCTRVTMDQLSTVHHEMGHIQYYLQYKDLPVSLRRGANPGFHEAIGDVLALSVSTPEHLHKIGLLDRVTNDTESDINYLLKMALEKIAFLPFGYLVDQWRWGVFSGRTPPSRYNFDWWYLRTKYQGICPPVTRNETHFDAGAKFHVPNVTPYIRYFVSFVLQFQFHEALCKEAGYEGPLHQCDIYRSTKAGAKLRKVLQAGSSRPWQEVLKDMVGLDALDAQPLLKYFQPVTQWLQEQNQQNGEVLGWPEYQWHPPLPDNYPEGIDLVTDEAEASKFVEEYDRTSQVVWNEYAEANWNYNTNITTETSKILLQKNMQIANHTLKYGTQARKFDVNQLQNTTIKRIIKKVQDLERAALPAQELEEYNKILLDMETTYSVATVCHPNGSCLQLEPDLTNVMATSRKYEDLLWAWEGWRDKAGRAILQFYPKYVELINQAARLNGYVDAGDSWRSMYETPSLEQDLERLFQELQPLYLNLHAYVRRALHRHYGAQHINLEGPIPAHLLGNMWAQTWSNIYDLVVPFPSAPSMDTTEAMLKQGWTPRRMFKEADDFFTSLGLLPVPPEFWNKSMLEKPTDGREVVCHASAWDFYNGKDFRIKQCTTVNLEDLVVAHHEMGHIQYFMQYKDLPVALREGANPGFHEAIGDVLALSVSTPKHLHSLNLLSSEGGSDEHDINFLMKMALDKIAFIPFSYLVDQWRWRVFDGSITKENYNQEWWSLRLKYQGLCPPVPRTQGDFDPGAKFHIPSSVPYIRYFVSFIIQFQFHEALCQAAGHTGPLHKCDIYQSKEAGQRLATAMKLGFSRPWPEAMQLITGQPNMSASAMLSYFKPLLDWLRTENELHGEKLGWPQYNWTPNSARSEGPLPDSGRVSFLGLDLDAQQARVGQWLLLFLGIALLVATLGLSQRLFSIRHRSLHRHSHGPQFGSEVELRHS

Regarding `CC[C@H](C)[C@H](NC(=O)[C@H](CCC(N)=O)NC(=O)[C@@H]1CCCN1C(=O)[C@H](CCCNC(=N)N)NC(=O)[C@@H]1CCCN1C(=O)[C@H](Cc1c[nH]c2ccccc12)NC(=O)[C@H](CCC(=O)O)NC(=O)CCCCCNC(=O)CCCCCNC(=O)CN1CCN(CC(=O)O)CCN(CC(=O)O)CCN(CC(=O)O)CC1)C(=O)N1CCC[C@H]1C(=O)N1CCC[C@H]1C(=O)O` [[^67Ga]Ga-DOTA-BPP9a, metal not drawn] ({DOTA-Ahx-Ahx}-EWPRPQIPP-OH), the “Degradation products (partial radiolysis)” value in data set [1] (saline, 24 h incubation) was ~ 11%. Also, the affinity at ACE, expressed as Kd, was 693 ± 354 nM.

For the compound `CC(=O)N[C@@H](CCCCNC(=O)CN1CCN(CC(=O)O)CCN(CC(=O)O)CCN(CC(=O)O)CC1)C(=O)NCC(=O)N[C@@H](CC(=O)O)C(=O)N[C@@H](Cc1ccc(O)cc1)C(=O)N[C@@H](CO)C(=O)N[C@@H](Cc1c[nH]cn1)C(=O)N[C@H]1CSSC[C@@H](C(=O)N[C@H](C(=O)N[C@@H](Cc2ccc(O)cc2)C(=O)N2CCC[C@H]2C(=O)N[C@@H](CC(=O)O)C(=O)N2CCC[C@H]2C(=O)N[C@@H](CCC(=O)O)C(=O)NCC(=O)NCC(=O)NCC(N)=O)[C@@H](C)O)NC(=O)[C@H](CCCCN)NC(=O)[C@H](Cc2c[nH]c3ccccc23)NC(=O)[C@H](Cc2c[nH]c3ccccc23)NC(=O)[C@@H]2CCCN2C(=O)[C@H](Cc2ccc(O)cc2)NC(=O)[C@H](Cc2ccc(O)cc2)NC(=O)[C@H](CCCNC(=N)N)NC(=O)[C@H](CC(C)C)NC(=O)[C@@H]2CCCN2C(=O)[C@H](CO)NC1=O` [[^67Ga]Ga-DOTA-DX600, metal not drawn] (Ac-K(DOTA)GDYSHCSPLRYYPWWKCTYPDPEGGG-NH2; disulfide 7-18), in data set [2] (3 h), the “Intact radiopeptide in mouse blood plasma” value came to 95 ± 3% and the “Release of gallium-67 in mouse blood plasma” value is given as ~ 4%. Besides, in data set [2] (24 h), the “Intact radiopeptide in mouse blood plasma” value came out at 20 ± 13% and the “Release of gallium-67 in mouse blood plasma” value was above 50%. Moreover, the “Intact radiopeptide in mouse blood plasma” value in data set [2] (first hour) is “intact”. In the data set with FVB mice, the “Release of gallium-67 from the chelator in blood plasma” value is 3.5 % of the total activity determined in the blood and the “Radiometabolites in kidney homogenates” value is given as ~ 93%.

`CC(=O)N[C@@H](CCCCNC(=O)CCC(C(=O)O)N1CCN(CC(=O)O)CCN(CC(=O)O)CC1)C(=O)NCC(=O)N[C@@H](CC(=O)O)C(=O)N[C@@H](Cc1ccc(O)cc1)C(=O)N[C@@H](CO)C(=O)N[C@@H](Cc1c[nH]cn1)C(=O)N[C@H]1CSSC[C@@H](C(=O)N[C@H](C(=O)N[C@@H](Cc2ccc(O)cc2)C(=O)N2CCC[C@H]2C(=O)N[C@@H](CC(=O)O)C(=O)N2CCC[C@H]2C(=O)N[C@@H](CCC(=O)O)C(=O)NCC(=O)NCC(=O)NCC(N)=O)[C@@H](C)O)NC(=O)[C@H](CCCCN)NC(=O)[C@H](Cc2c[nH]c3ccccc23)NC(=O)[C@H](Cc2c[nH]c3ccccc23)NC(=O)[C@@H]2CCCN2C(=O)[C@H](Cc2ccc(O)cc2)NC(=O)[C@H](Cc2ccc(O)cc2)NC(=O)[C@H](CCCNC(=N)N)NC(=O)[C@H](CC(C)C)NC(=O)[C@@H]2CCCN2C(=O)[C@H](CO)NC1=O` (stereo partly drawn) [[^67Ga]Ga-NODAGA-DX600, metal not drawn] (Ac-K(NODAGA)GDYSHCSPLRYYPWWKCTYPDPEGGG-NH2; disulfide 7-18): the Intact radiopeptide in data set [1] (1 h), in data set [1] (3 h) and in data set [1] (24 h) was at least 99% each time. The results for the “Intact radiopeptide in mouse blood plasma” value in data set [2] (3 h) and in data set [2] (24 h) were 97 ± 1% and 36 ± 7%, respectively. Moreover, the “Radiometabolites in kidney homogenates” value with FVB mice is on record as ~ 90%.
